Data published in paper PMC7531004, “Discovery of gramicidin A analogues with altered activities by multidimensional screening of a one-bead-one-compound library” (Nature Communications, 2020).
Where a SMILES comes first, the peptide text is derived from it. [ ]: non-standard residue; d: D form. The star is where a group is joined. NHCH2CH2OH = OCCN*; For = O=C*

Assays:
[1] = H+/Na+ transport assay of bead-derived peptides (one-point); type: biochemical; set-up: key: relative activity; mean of two control wells = 1.00; conditions: bead-derived peptide solution, EYPC/EYPG LUVs;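 note: relative to parent gramicidin A activity set to 1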
Method in brief: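 H+/Na+ transport is monitored through pyranine fluorescence in freshly extruded LUVs after a 30-min room-temperature vortex with each library peptide at a single concentration. Signals are normalized to detergent (Triton X-100) and untreated controls.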

[2] = test system: P388 mouse leukemia cells; conditions: 92 h
Method in brief: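 Peptide stocks diluted 250× in growth medium; P388 cells 1 × 10^4 cells/mL final; 37 °C, 5% CO2, 92 h. WST-1 + 1-methoxy PMS, 4 h, A415. Output: % viability.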

[3] = test system: Streptococcus pyogenes SSI-9; experiment: Antibacterial activity assay of bead-derived peptides (three concentrations); type: cell-based; set-up: key: +++: inhibition by the 640-fold diluted peptide solution; ++: inhibition by the 160-fold diluted solution; +: inhibition by the 40-fold diluted solution; -: no inhibition; conditions: S. pyogenes, bead-derived peptide solution, three concentrations
Method in brief: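 First, each peptide stock was diluted 4- and 16-fold in DMSO; next, the three solutions were mixed with S. pyogenes SSI-9 suspension (2 × 10^5 CFU) in cation-adjusted Mueller Hinton Broth plus 5% laked horse blood; finally, plates stood 18 h at 37 °C before checking for grown-cell precipitation.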

SMILES	H+/Na+ transport activity normalized against the value of 1 (1.00) [1]	cell viability/% [2] [%]	antibacterial activity [3]
CC(C)[C@H](NC=O)C(=O)NCC(=O)N[C@@H](C)C(=O)N[C@@H](C(=O)N[C@@H](C)C(=O)N[C@@H](C(=O)N[C@H](C(=O)N[C@@H](C(=O)N[C@@H](Cc1c[nH]c2ccccc12)C(=O)N[C@@H](C(=O)N[C@@H](Cc1c[nH]c2ccccc12)C(=O)N[C@@H](C(=O)N[C@@H](Cc1c[nH]c2ccccc12)C(=O)N[C@@H](C(=O)N[C@@H](Cc1c[nH]c2ccccc12)C(=O)NCCO)C(C)C)C(C)C)C(C)C)C(C)C)C(C)C)C(C)C)[C@H](C)O [compound 8545] (For-VGA[dT]A[dV]V[dV]W[dV]W[dV]W[dV]W-NHCH2CH2OH)	1.01	83.1	-
CC(C)C[C@@H](NC(=O)[C@H](C)NC(=O)CNC(=O)[C@@H](NC=O)C(C)C)C(=O)N[C@@H](C)C(=O)N[C@@H](C(=O)N[C@H](C(=O)N[C@@H](C(=O)N[C@@H](Cc1c[nH]c2ccccc12)C(=O)N[C@H](CC(C)C)C(=O)N[C@@H](Cc1c[nH]c2ccccc12)C(=O)N[C@H](CC(C)C)C(=O)N[C@@H](Cc1c[nH]c2ccccc12)C(=O)N[C@@H](C(=O)N[C@@H](Cc1c[nH]c2ccccc12)C(=O)NCCO)C(C)C)[C@H](C)O)C(C)C)C(C)C [compound 6702] (For-VGA[dL]A[dV]V[dT]W[dL]W[dL]W[dV]W-NHCH2CH2OH)	1.03	100.0	+
CC(C)C[C@@H](NC(=O)[C@H](C)NC(=O)[C@H](NC(=O)[C@H](C)NC(=O)CNC(=O)[C@@H](NC=O)C(C)C)C(C)C)C(=O)N[C@H](C(=O)N[C@@H](C(=O)N[C@@H](Cc1c[nH]c2ccccc12)C(=O)N[C@H](CC(C)C)C(=O)N[C@@H](Cc1c[nH]c2ccccc12)C(=O)N[C@@H](C(=O)N[C@@H](Cc1c[nH]c2ccccc12)C(=O)N[C@@H](C(=O)N[C@@H](Cc1c[nH]c2ccccc12)C(=O)NCCO)C(C)C)C(C)C)C(C)C)C(C)C [compound 8697] (For-VGA[dV]A[dL]V[dV]W[dL]W[dV]W[dV]W-NHCH2CH2OH)	1.04	100.0	+
CNC(=O)C[C@@H](NC(=O)[C@@H](NC(=O)[C@@H](CC(C)C)NC(=O)[C@H](C)NC(=O)[C@H](NC(=O)[C@H](C)NC(=O)CNC(=O)[C@@H](NC=O)C(C)C)C(C)C)C(C)C)C(=O)N[C@@H](Cc1c[nH]c2ccccc12)C(=O)N[C@@H](C(=O)N[C@@H](Cc1c[nH]c2ccccc12)C(=O)N[C@@H](C(=O)N[C@@H](Cc1c[nH]c2ccccc12)C(=O)N[C@@H](C(=O)N[C@@H](Cc1c[nH]c2ccccc12)C(=O)NCCO)C(C)C)C(C)C)C(C)C [compound 8662] (For-VGA[dV]A[dL]V[dD](NHMe)W[dV]W[dV]W[dV]W-NHCH2CH2OH)	1.08	61.0	-
CNC(=O)C[C@@H](NC(=O)[C@@H](NC(=O)[C@H](NC(=O)[C@H](C)NC(=O)[C@@H](CC(C)C)NC(=O)[C@H](C)NC(=O)CNC(=O)[C@@H](NC=O)C(C)C)C(C)C)C(C)C)C(=O)N[C@@H](Cc1c[nH]c2ccccc12)C(=O)N[C@H](CC(C)C)C(=O)N[C@@H](Cc1c[nH]c2ccccc12)C(=O)N[C@H](CC(C)C)C(=O)N[C@@H](Cc1c[nH]c2ccccc12)C(=O)N[C@H](CC(C)C)C(=O)N[C@@H](Cc1c[nH]c2ccccc12)C(=O)NCCO [compound 9336] (For-VGA[dL]A[dV]V[dD](NHMe)W[dL]W[dL]W[dL]W-NHCH2CH2OH)	1.18	100.0	-
CNC(=O)C[C@@H](NC(=O)[C@@H](NC(=O)[C@H](NC(=O)[C@H](C)NC(=O)[C@H](NC(=O)[C@H](C)NC(=O)CNC(=O)[C@@H](NC=O)C(C)C)C(C)C)C(C)C)C(C)C)C(=O)N[C@@H](Cc1c[nH]c2ccccc12)C(=O)N[C@@H](C(=O)N[C@@H](Cc1c[nH]c2ccccc12)C(=O)N[C@H](CC(C)C)C(=O)N[C@@H](Cc1c[nH]c2ccccc12)C(=O)N[C@H](CC(C)C)C(=O)N[C@@H](Cc1c[nH]c2ccccc12)C(=O)NCCO)C(C)C [compound 4049] (For-VGA[dV]A[dV]V[dD](NHMe)W[dV]W[dL]W[dL]W-NHCH2CH2OH)	1.15	100.0	-
CC(C)C[C@@H](NC(=O)[C@H](C)NC(=O)[C@H](NC(=O)[C@H](C)NC(=O)CNC(=O)[C@@H](NC=O)C(C)C)C(C)C)C(=O)N[C@H](C(=O)N[C@@H](C(=O)N[C@@H](Cc1c[nH]c2ccccc12)C(=O)N[C@H](CC(C)C)C(=O)N[C@@H](Cc1c[nH]c2ccccc12)C(=O)N[C@H](CC(C)C)C(=O)N[C@@H](Cc1c[nH]c2ccccc12)C(=O)N[C@@H](C(=O)N[C@@H](Cc1c[nH]c2ccccc12)C(=O)NCCO)C(C)C)C(C)C)C(C)C [compound 9535] (For-VGA[dV]A[dL]V[dV]W[dL]W[dL]W[dV]W-NHCH2CH2OH)	1.16	3.8	-
CC(C)C[C@@H](NC(=O)[C@H](Cc1c[nH]c2ccccc12)NC(=O)[C@H](NC(=O)[C@H](Cc1c[nH]c2ccccc12)NC(=O)[C@H](NC(=O)[C@H](Cc1c[nH]c2ccccc12)NC(=O)[C@@H](CC(C)C)NC(=O)[C@@H](NC(=O)[C@H](NC(=O)[C@H](C)NC(=O)[C@H](NC(=O)[C@H](C)NC(=O)CNC(=O)[C@@H](NC=O)C(C)C)[C@H](C)O)C(C)C)C(C)C)C(C)C)C(C)C)C(=O)N[C@@H](Cc1c[nH]c2ccccc12)C(=O)NCCO [compound 9075] (For-VGA[dT]A[dV]V[dL]W[dV]W[dV]W[dL]W-NHCH2CH2OH)	1.01	58.6	-
CC(C)C[C@@H](NC(=O)[C@H](Cc1c[nH]c2ccccc12)NC(=O)[C@H](NC(=O)[C@H](Cc1c[nH]c2ccccc12)NC(=O)[C@H](NC(=O)[C@H](Cc1c[nH]c2ccccc12)NC(=O)[C@H](NC(=O)[C@@H](NC(=O)[C@H](NC(=O)[C@H](C)NC(=O)[C@H](NC(=O)[C@H](C)NC(=O)CNC(=O)[C@@H](NC=O)C(C)C)C(C)C)[C@H](C)O)C(C)C)C(C)C)C(C)C)C(C)C)C(=O)N[C@@H](Cc1c[nH]c2ccccc12)C(=O)NCCO [compound 5164] (For-VGA[dV]A[dT]V[dV]W[dV]W[dV]W[dL]W-NHCH2CH2OH)	1.19	100.0	-
CC(C)C[C@@H](NC(=O)[C@H](C)NC(=O)[C@H](NC(=O)[C@H](C)NC(=O)CNC(=O)[C@@H](NC=O)C(C)C)C(C)C)C(=O)N[C@H](C(=O)N[C@@H](C(=O)N[C@@H](Cc1c[nH]c2ccccc12)C(=O)N[C@H](CC(C)C)C(=O)N[C@@H](Cc1c[nH]c2ccccc12)C(=O)N[C@@H](C(=O)N[C@@H](Cc1c[nH]c2ccccc12)C(=O)N[C@@H](C(=O)N[C@@H](Cc1c[nH]c2ccccc12)C(=O)NCCO)C(C)C)C(C)C)[C@H](C)O)C(C)C [compound 4126] (For-VGA[dV]A[dL]V[dT]W[dL]W[dV]W[dV]W-NHCH2CH2OH)	1.06	100.0	-
